≈ marks a conversion by molar mass, not a printed value. Each block holds one compound with its values, some of them ahead of it.
What was measured:
[1] = system: skin of BALB/c female mice; experiment: Skin irritation study (Draize test); assay type: in vivo; details: topical, about 1 cm^2 hairless dorsal skin, score 0 none, 1 slight, 2 moderate, 3 severe, mean
Experimental: Skin irritation potential of lipopetide based emulgel formulation was evaluated by carrying out skin irritancy test using 8 weeks old BALB/c female mice ([Draize et al., 1944]). Mice dorsal surface hair was removed without damaging the skin surface about 24 h prior to the experiment. Mice were divided into three groups (n = 3): […] Group II: plain gel (negative control); and Group III: […] emulgel. The formulation was topically applied to the hairless skin area (approximately 1 cm^2) and observations were recorded at 24, 48, and 72 h.

[2] = system: C. aurius 470126 (clinical isolate); experiment: MIC, microtiter plate dilution assay; assay type: cell-based; details: 5 × 10^5 CFU/ml, 37°C, OD600 after 48 h, triplicate
Experimental: (§1) The antimicrobial activity was tested by well diffusion assay as mentioned earlier ([Singh et al., 2014]). Strain A52 was grown for 24 h in 500 ml of nutrient broth (NB, Hi-media, India) using 1000 ml flask and subsequently cells were removed by centrifugation (10,000 rpm for 15 min at 4°C). Supernatant was filtered through 0.22 μm filter (Millipore, United States) to obtain cell-free fermented broth (CFB) that was used for antimicrobial assay (50 μl) against various indicator strains and the activity was measured as diameter of inhibition zone. Test strains used were Staphylococcus aureus (MTCC 1430), Bacillus subtilis (MTCC 121), B. firmus (MTCC 488), B. licheniformis (MTCC 429), B. thuringiensis (MTCC 1953), Escherichia coli (MTCC 1610), Micrococcus luteus (MTCC 106), Steptococcus pyrogens (MTCC 1928), S. anginosus (MTCC 1929), S. oralis (MTCC 2696), S. mutans (MTCC 497), Candida albicans (MTCC 1637), C. albicans (MTCC 183), C. albicans (MTCC 227), C. tropicalis (MTCC 184), C. glabrata (MTCC 3019), C. haemulonii (MTCC 2766), and C. inconsplicue (MTCC 1074). The phytopathogenic fungi employed in this study were Alternaria brassicicola (MTCC 2102), Colletotrichum acutatum (MTCC 1037), and Fusarium moniliforme (MTCC 158). Clinical isolates of Candida were provided by National Culture Collection of Pathogenic Fungi (NCCPF), PGIMER, Chandigarh, India.
(§2) The minimum inhibitory concentration (MIC) of HPLC purified peptides was evaluated by using microtiter plate dilution assay. The peptide concentration was estimated using BCA protein assay (Thermo Fisher Scientific, United States) method as described by manufacturer. Actively growing test strains (5 × 10^5 CFU/ml) were inoculated in a 96-well plate with different concentrations of the peptides and plates were incubated for 24–48 h at 37°C (final volume in each well is 200 μl). OD was measured at 600 nm after 24 and 48 h for bacteria and yeast, respectively, using ELISA microplate reader (Thermo, United States). MIC against phytopathogenic fungi was determined using 96-well microtiter plate assay ([Kaur et al., 2016]). In 96-well microplates, 100 μl of fungal spore suspension (1 × 10^5 spores/ml) prepared in potato dextrose broth (PDB, Hi-media, India) was mixed with100 μl of fresh PDB containing different concentrations of lipopeptide. Control well contained 100 μl of fungal spore suspension and 100 μl of only medium. The microplates were incubated at 25°C and readings were recorded at 600 nm after 48 h. The lowest concentration showing no growth was considered as MIC. Each test was done in triplicate and optical density (OD600) of peptide treated wells were compared with uninoculated wells (blank medium control).

C. glabrata MTCC 3019 = experiment: MIC, microtiter plate dilution assay; assay type: cell-based; details: Nakaseomyces glabratus, MTCC3019; 5 × 10^5 CFU/ml, 37°C, OD600 after 48 h, triplicate
Experimental: as §1, §2

[3] = system: C. glabrata SKSS ID (clinical isolate); experiment: MIC, microtiter plate dilution assay; assay type: cell-based; details: Nakaseomyces glabratus, 5 × 10^5 CFU/ml, 37°C, OD600 after 48 h, triplicate
Experimental: as §1, §2

[4] = system: C. haemulonii 470125 (clinical isolate); experiment: MIC, microtiter plate dilution assay; assay type: cell-based; details: Candidozyma haemuli, 5 × 10^5 CFU/ml, 37°C, OD600 after 48 h, triplicate
Experimental: as §1, §2

C. haemulonii MTCC 2766 = experiment: MIC, microtiter plate dilution assay; assay type: cell-based; details: Candidozyma haemuli, MTCC2766; 5 × 10^5 CFU/ml, 37°C, OD600 after 48 h, triplicate
Experimental: as §1, §2

[5] = system: C. inconsplicue MTCC 1074; experiment: MIC, microtiter plate dilution assay; assay type: cell-based; details: 5 × 10^5 CFU/ml, 37°C, OD600 after 48 h, triplicate
Experimental: as §1, §2

[6] = system: C. kefyr 410004 (clinical isolate); experiment: MIC, microtiter plate dilution assay; assay type: cell-based; details: Kluyveromyces marxianus, 5 × 10^5 CFU/ml, 37°C, OD600 after 48 h, triplicate
Experimental: as §1, §2

[7] = system: C. krusei 440009 (clinical isolate); experiment: MIC, microtiter plate dilution assay; assay type: cell-based; details: Pichia kudriavzevii, 5 × 10^5 CFU/ml, 37°C, OD600 after 48 h, triplicate
Experimental: as §1, §2

[8] = system: C. parasilosis 450030 (clinical isolate); experiment: MIC, microtiter plate dilution assay; assay type: cell-based; details: 5 × 10^5 CFU/ml, 37°C, OD600 after 48 h, triplicate
Experimental: as §1, §2

[9] = system: C. rugos 470141 (clinical isolate); experiment: MIC, microtiter plate dilution assay; assay type: cell-based; details: 5 × 10^5 CFU/ml, 37°C, OD600 after 48 h, triplicate
Experimental: as §1, §2

[10] = system: C. tropicalis 420024 (clinical isolate); experiment: MIC, microtiter plate dilution assay; assay type: cell-based; details: Candida tropicalis, 5 × 10^5 CFU/ml, 37°C, OD600 after 48 h, triplicate
Experimental: as §1, §2

C. tropicalis MTCC 184 = experiment: MIC, microtiter plate dilution assay; assay type: cell-based; details: Candida tropicalis, MTCC184; 5 × 10^5 CFU/ml, 37°C, OD600 after 48 h, triplicate
Experimental: as §1, §2

[11] = system: C. albicans 400054 (clinical isolate); experiment: MIC, microtiter plate dilution assay; assay type: cell-based, Candida albicans; details: Candida albicans, 5 × 10^5 CFU/ml, 37°C, OD600 after 48 h, triplicate
Experimental: as §1, §2

C. albicans MTCC 1637 = experiment: MIC, microtiter plate dilution assay; assay type: cell-based, Candida albicans; details: Candida albicans, MTCC1637; 5 × 10^5 CFU/ml, 37°C, OD600 after 48 h, triplicate
Experimental: as §1, §2

C. albicans MTCC 183 = experiment: MIC, microtiter plate dilution assay; assay type: cell-based, Candida albicans; details: Candida albicans, MTCC183; 5 × 10^5 CFU/ml, 37°C, OD600 after 48 h, triplicate
Experimental: as §1, §2

C. albicans MTCC 227 = experiment: MIC, microtiter plate dilution assay; assay type: cell-based, Candida albicans; details: Candida albicans, MTCC227; 5 × 10^5 CFU/ml, 37°C, OD600 after 48 h, triplicate
Experimental: as §1, §2

[12] = system: A. brassicicola MTCC 2102; experiment: MIC against phytopathogenic fungi, 96-well microtiter plate assay; assay type: cell-based, Alternaria brassicicola; details: Alternaria brassicicola, MTCC2102; 1 × 10^5 spores/ml in PDB, 25°C, OD600 after 48 h, triplicate
Experimental: The antimicrobial activity was tested by well diffusion assay as mentioned earlier ([Singh et al., 2014]). Strain A52 was grown for 24 h in 500 ml of nutrient broth (NB, Hi-media, India) using 1000 ml flask and subsequently cells were removed by centrifugation (10,000 rpm for 15 min at 4°C). Supernatant was filtered through 0.22 μm filter (Millipore, United States) to obtain cell-free fermented broth (CFB) that was used for antimicrobial assay (50 μl) against various indicator strains and the activity was measured as diameter of inhibition zone. […]
(§3) The minimum inhibitory concentration (MIC) of HPLC purified peptides was evaluated by using microtiter plate dilution assay. […] OD was measured at 600 nm after 24 and 48 h for bacteria and yeast, respectively, using ELISA microplate reader (Thermo, United States). MIC against phytopathogenic fungi was determined using 96-well microtiter plate assay ([Kaur et al., 2016]). […] The microplates were incubated at 25°C and readings were recorded at 600 nm after 48 h. […]

F. moniliforme MTCC 158 = experiment: as above; assay type: cell-based, Fusarium moniliforme; details: Fusarium verticillioides, MTCC158; 1 × 10^5 spores/ml in PDB, 25°C, OD600 after 48 h, triplicate
Experimental: as §1
as §3, with “assay. The peptide concentration was estimated using BCA protein assay (Thermo Fisher Scientific, United States) method as described by manufacturer.” for “assay.”

SMILES: CCCCCCCCCCCCOS(=O)(=O)[O-].[Na+] [Positive Control, sodium lauryl sulfate]
Erythema score (n=3), 0 h [1]: 0
Erythema score (n=3), 24h [1]: 3
Erythema score (n=3), 48h [1]: 3
Erythema score (n=3), 72h [1]: 3

MIC [2]: 5 µg/mL (≈ 5.41 µM)
MIC (C. glabrata MTCC 3019): 25 µg/mL (≈ 27.1 µM)
MIC [3]: 100 µg/mL (≈ 108 µM)
MIC [4]: 50 µg/mL (≈ 54.1 µM)
MIC (C. haemulonii MTCC 2766): 100 µg/mL (≈ 108 µM)
MIC [5]: 10 µg/mL (≈ 10.8 µM)
MIC [6]: 50 µg/mL (≈ 54.1 µM)
MIC [7]: 5 µg/mL (≈ 5.41 µM)
MIC [8]: 50 µg/mL (≈ 54.1 µM)
MIC [9]: 5 µg/mL (≈ 5.41 µM)
MIC [10]: 50 µg/mL (≈ 54.1 µM)
MIC (C. tropicalis MTCC 184): 35 µg/mL (≈ 37.9 µM)
MIC [11]: 5 µg/mL (≈ 5.41 µM)
MIC (C. albicans MTCC 1637): 5 µg/mL (≈ 5.41 µM)
MIC (C. albicans MTCC 183): 5 µg/mL (≈ 5.41 µM)
MIC (C. albicans MTCC 227): 5 µg/mL (≈ 5.41 µM)
MIC [12]: 50 µg/mL (≈ 54.1 µM)
MIC (F. moniliforme MTCC 158): 50 µg/mL (≈ 54.1 µM)
SMILES: C[C@@H]1[C@H](O)[C@@H](C)/C=C/C=C/C=C/C=C/C=C/C=C/C=C/[C@H](O[C@@H]2O[C@H](C)[C@@H](O)[C@H](N)[C@@H]2O)C[C@@H]2O[C@](O)(C[C@@H](O)C[C@@H](O)[C@H](O)CC[C@@H](O)C[C@@H](O)CC(=O)O[C@H]1C)C[C@H](O)[C@H]2C(=O)O [Amphotericin B, reference compound]
